In patent US10828301B2, “2,4-pyrimidinediamine compounds and their uses” (Rigel Pharmaceuticals, Inc, priority 2002, dated 2020):

Key:
[1] = system: proteins downstream of Syk kinase and LYN kinase in activated CHMC cells; test: Phosphorylation of proteins in the FcεRI signal transduction cascade in activated CHMC cells; format: cell-based, human; conditions: FIG. 10
[2] = system: basophils in whole human peripheral blood; test: Basophil dustmite activation: histamine release assay; format: cell-based; conditions: read-out: Basophils Dust mite Histmine IC50
Method: The basophil activation assay was carried out using whole human peripheral blood from donors allergic to dust mites with the majority of the red blood cells removed by dextran sedimentation. Human peripheral blood was mixed 1:1 with 3% dextran T500 and RBCs were allowed to settle for 20-25 min. The upper fraction was diluted with 3 volumes of D-PBS and cells were spun down for 10 min at 1500 rpm, RT. Supernatant was aspirated and cells were washed in an equal volume MT-buffer. Finally, cells were resuspended in MT-buffer containing 0.5% DMSO in the original blood volume. 80 uL cells were mixed with 20 uL compound in the presence of 0.5% DMSO, in triplicate, in a V-bottom 96-well tissue culture plate. A dose range of 8 compound concentrations was tested resulting in a 10-point dose response curve including maximum (stimulated) and minimum (unstimulated) response. […] The cells were stimulated for 30 minutes at 37° C., 5% CO2. […] The ELISA was performed according to supplier's instructions.

CHMC cells = test: anti-IgE-induced calcium ion flux in CHMC cells; format: cell-based, human; conditions: 10 μM compound

With `Oc1cccc(Nc2ncc(F)c(Nc3cccc(O)c3)n2)c1` [Compound R921218, N2,N4-Bis(3-hydroxyphenyl)-5-fluoro-2,4-pyrimidinediamine] the “phosphorylation of proteins downstream of Syk kinase in the FcεRI signal transduction cascade” value [1] was “inhibit phosphorylation”, the IC50 [2] was 302 nM and the “anti-IgE-induced Ca2+ flux” value (CHMC cells) was “inhibited anti-IgE-induced Ca^2+ flux”.
